Paper PMC9469649 (Bioorganic & medicinal chemistry letters, 2022)

Key:
[1] = target: Kv7.2 wild type (WT) channels (Homo sapiens, UniProt O43526); test: SyncroPatch 384PE automated whole cell patch-clamp, wild type Kv7.2; format: cell-based
[2] = target: Kv7.2/7.3 heterotetramers (Homo sapiens, UniProt O43525+O43526); test: Whole cell patch-clamp electrophysiology, transfected CHO cells, Kv7.2/7.3; format: cell-based
Kv7.3 over Kv7.2 = conditions: cited from earlier work

Chain of Kv7.2 wild type (WT) channels (O43526 whole entry): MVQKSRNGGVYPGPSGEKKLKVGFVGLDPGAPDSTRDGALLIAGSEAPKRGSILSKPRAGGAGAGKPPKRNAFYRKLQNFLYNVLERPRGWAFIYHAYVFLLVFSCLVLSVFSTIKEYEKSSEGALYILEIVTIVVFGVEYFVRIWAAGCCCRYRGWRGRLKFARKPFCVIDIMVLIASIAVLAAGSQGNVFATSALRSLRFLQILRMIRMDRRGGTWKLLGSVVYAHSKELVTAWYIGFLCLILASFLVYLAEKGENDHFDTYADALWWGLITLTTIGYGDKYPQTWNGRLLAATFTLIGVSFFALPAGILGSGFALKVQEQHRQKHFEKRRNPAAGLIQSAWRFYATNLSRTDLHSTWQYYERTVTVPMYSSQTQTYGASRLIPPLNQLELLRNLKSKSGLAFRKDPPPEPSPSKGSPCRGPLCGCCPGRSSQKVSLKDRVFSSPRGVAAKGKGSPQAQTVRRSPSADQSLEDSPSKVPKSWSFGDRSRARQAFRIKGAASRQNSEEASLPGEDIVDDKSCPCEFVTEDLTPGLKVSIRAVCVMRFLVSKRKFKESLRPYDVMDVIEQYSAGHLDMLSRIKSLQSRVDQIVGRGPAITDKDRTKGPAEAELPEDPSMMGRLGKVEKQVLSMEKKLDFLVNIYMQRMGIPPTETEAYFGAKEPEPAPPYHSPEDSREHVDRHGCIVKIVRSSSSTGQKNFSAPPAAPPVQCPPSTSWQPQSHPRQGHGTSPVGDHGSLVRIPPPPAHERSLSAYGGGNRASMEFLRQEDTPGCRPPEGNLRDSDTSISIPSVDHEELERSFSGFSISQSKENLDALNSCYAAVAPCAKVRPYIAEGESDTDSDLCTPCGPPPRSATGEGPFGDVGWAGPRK

CCOC(=O)Nc1cc(F)c2c(c1N)S(=O)(=O)CC(c1ccccc1)N2 (centres unmarked) [CH-02]
Kv7.2 channel activity ([1]; SyncroPatch screen, 5 μM): completely inactive

[2H]c1cc(NC(=O)OCC)c(N)c(F)c1NCc1ccc(C(F)(F)F)cc1 [RL-25]
activity on Kv7.2 relative to RL-71 (less active) ([1]; from EC50 values, Table 2): 20 fold
potency on Kv7.2 relative to retigabine (more potent) ([1]; from EC50 values, Table 2): 4 fold

Nc1c(NC(=O)OC2CC2)ccc(NCc2ccc(C(F)(F)F)cc2)c1F [RL-56]
EC50 [2]: ~20 nM

CCOC(=O)Nc1ccc(NCc2ccc(F)cc2)cc1N [Retigabine, retigabine]
lower EC50 for Kv7.3 over Kv7.2 (Kv7.3 over Kv7.2): ca. 4 fold
